This passage reports TGI and GI50 results from PubChem BioAssay (NCI).

Among the test systems are SK-MEL-28 melanoma; HCT-15 colon; HOP-62 NSCLC; KM12 colon; RXF 393 renal; OVCAR-4 ovarian; BT-549 breast; A549 NSCLC; IGROV1 ovarian; SR leukemia.
Holding throughout (test): DTP human tumour cell line panel, 48 h

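Interpolation was linear, between the two tested concentrations surrounding the appropriate level; five concentrations were tested over 48 hours in 96-well plates. GI50 marks 50% less growth. Definition used: TGI = concentration required for complete inhibition of growth.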

In the case of `O=C1c2ccccc2C(=O)N1c1ccc(Cc2ccc(N3C(=O)c4ccccc4C3=O)cc2)cc1`, the TGI in the experiment on SK-MEL-28 melanoma, in the experiment with HCT-15 colon, with HOP-62 NSCLC, with KM12 colon, with RXF 393 renal and with OVCAR-4 ovarian was greater than 100 µM each time. Also, the TGI in the experiment with BT-549 breast, in the experiment on A549 NSCLC and in the experiment on IGROV1 ovarian was greater than 100 µM each time.

As to `COc1ccc(-n2cc(-c3cc(OC)c(OC)c(OC)c3)nc2SCc2cccc(C#N)c2)cc1OC`, the GI50 in the experiment with SK-MEL-28 melanoma was 16.8 µM; with HCT-15 colon it was greater than 100 µM; in the experiment with HOP-62 NSCLC it was greater than 100 µM; in the experiment on KM12 colon, greater than 100 µM; with OVCAR-4 ovarian, 2120 nM; in the experiment with A549 NSCLC, 82.3 µM. For the same molecule, the GI50 in the experiment with IGROV1 ovarian is greater than 100 µM. The TGI is greater than 100 µM in the experiment with SK-MEL-28 melanoma; greater than 100 µM with HCT-15 colon; greater than 100 µM in the experiment on HOP-62 NSCLC; greater than 100 µM in the experiment on KM12 colon; 39.6 µM with OVCAR-4 ovarian; greater than 100 µM with A549 NSCLC. In addition, in the experiment on IGROV1 ovarian, the TGI is greater than 100 µM.

As to `COC1CCCc2c(OC(C)=O)ccc(OC(C)=O)c21` (stereo not drawn), the TGI with SK-MEL-28 melanoma, in the experiment on HCT-15 colon, with HOP-62 NSCLC, in the experiment on SR leukemia, with KM12 colon and in the experiment with RXF 393 renal was greater than 100 µM each time. Moreover, the TGI with OVCAR-4 ovarian, in the experiment on A549 NSCLC and in the experiment on IGROV1 ovarian was greater than 100 µM throughout.

For the molecule `CCN(Cc1ccc(Cl)c(Cl)c1)c1ccc2nc(N)nc(N)c2c1C`, the GI50 was 0.157 µM with SK-MEL-28 melanoma; 0.048 µM in the experiment with KM12 colon; 1050 nM in the experiment on OVCAR-4 ovarian; 296 nM in the experiment on BT-549 breast; less than 0.01 µM with IGROV1 ovarian. Also, the TGI in the experiment on SK-MEL-28 melanoma came to 1.83 µM; in the experiment with KM12 colon it was 1.67 µM; in the experiment with OVCAR-4 ovarian, 16.1 µM; in the experiment on BT-549 breast it was 7.27 µM; in the experiment with IGROV1 ovarian, 1.58 µM.

Take `Cn1cc(-c2ccc3c4ccccc4n(C)c3c2)c2ccccc21`: the TGI in the experiment on SK-MEL-28 melanoma, in the experiment on HCT-15 colon, in the experiment on HOP-62 NSCLC, in the experiment on KM12 colon, in the experiment on RXF 393 renal and in the experiment on OVCAR-4 ovarian was greater than 100 µM throughout. Moreover, the TGI in the experiment on A549 NSCLC and in the experiment on IGROV1 ovarian was greater than 100 µM in each case.

On to `N.N.N.N.N#N.N#N.[Cl-].[Os+6]`, for which the GI50 with SK-MEL-28 melanoma is greater than 100 µM; in the experiment with HCT-15 colon, greater than 100 µM; in the experiment on SR leukemia, greater than 100 µM; in the experiment with KM12 colon, greater than 100 µM; in the experiment with RXF 393 renal it was greater than 100 µM; in the experiment on OVCAR-4 ovarian it was greater than 100000 nM. Further, the GI50 in the experiment with A549 NSCLC and in the experiment with IGROV1 ovarian was greater than 100 µM each time. Further, the TGI in the experiment on SK-MEL-28 melanoma, in the experiment on HCT-15 colon, in the experiment with SR leukemia, with KM12 colon, in the experiment on RXF 393 renal and with OVCAR-4 ovarian was greater than 100 µM each time. Further, the TGI with A549 NSCLC and in the experiment on IGROV1 ovarian was greater than 100 µM in each case.

On to `CNc1c2ccccc2nc2occ(Cl)c12`, for which the GI50 in the experiment on SK-MEL-28 melanoma is 48.7 µM; in the experiment on HCT-15 colon it was 33.8 µM; in the experiment on HOP-62 NSCLC, 40.7 µM; in the experiment on SR leukemia it was 18.3 µM; in the experiment on KM12 colon, 32.6 µM; with RXF 393 renal, 19.7 µM. The GI50 is 29400 nM in the experiment on OVCAR-4 ovarian, 31 µM with A549 NSCLC and 50.5 µM in the experiment on IGROV1 ovarian. Further, the TGI is greater than 100 µM in the experiment with SK-MEL-28 melanoma; greater than 100 µM in the experiment with HCT-15 colon; greater than 100 µM in the experiment with HOP-62 NSCLC; 50.6 µM in the experiment with SR leukemia; greater than 100 µM in the experiment with KM12 colon; 50.8 µM in the experiment with RXF 393 renal. Moreover, the TGI in the experiment on OVCAR-4 ovarian, in the experiment on A549 NSCLC and with IGROV1 ovarian was greater than 100 µM throughout.

On to `O=C(n1c2ccccc2c2n[nH]c(=S)nc21)C(F)(F)F`, for which the TGI in the experiment with SK-MEL-28 melanoma, in the experiment with HCT-15 colon, in the experiment with HOP-62 NSCLC, with KM12 colon, in the experiment on RXF 393 renal and with OVCAR-4 ovarian was greater than 100 µM each time. Also, the TGI with A549 NSCLC and with IGROV1 ovarian was greater than 100 µM in each case.

Regarding `CC(C)(C)C1=CC(=N/N=c2\scc(-c3ccccc3)n2Cc2ccccc2)C=C(C(C)(C)C)C1=O`, the TGI in the experiment with SK-MEL-28 melanoma, with HCT-15 colon, in the experiment with HOP-62 NSCLC, in the experiment with SR leukemia, in the experiment with RXF 393 renal and in the experiment on OVCAR-4 ovarian was greater than 100 µM in each case. Further, in the experiment on A549 NSCLC, the TGI was greater than 100 µM.

For `Cc1c(C)c2cc3c(=O)c(CCl)coc3c(C)c2oc1=O`, the TGI in the experiment with SK-MEL-28 melanoma, with HCT-15 colon, in the experiment on HOP-62 NSCLC, in the experiment on KM12 colon, in the experiment with RXF 393 renal and with A549 NSCLC was greater than 100 µM in each case. For the same molecule, in the experiment with IGROV1 ovarian, the TGI is greater than 100 µM.

For the molecule `COCN1COCN(C)C1=O`, the TGI in the experiment with SK-MEL-28 melanoma, in the experiment with HCT-15 colon, in the experiment on HOP-62 NSCLC, in the experiment on KM12 colon, with OVCAR-4 ovarian and in the experiment with A549 NSCLC was greater than 100 µM in each case. The same molecule gave a TGI in the experiment on IGROV1 ovarian greater than 100 µM.

Regarding `CCOC(=O)c1ccc(N=Cc2ccc(N(CCC#N)S(=O)(=O)c3ccccc3)cc2C)cc1`, the TGI in the experiment with SK-MEL-28 melanoma, with HCT-15 colon, in the experiment with HOP-62 NSCLC, in the experiment on KM12 colon, with OVCAR-4 ovarian and in the experiment on A549 NSCLC was greater than 100 µM throughout. Besides, the TGI in the experiment on IGROV1 ovarian was greater than 100 µM.

With `O=c1[nH]c2nc3ccccc3c(=O)n2nc1Cc1ccccc1`, the TGI in the experiment on SK-MEL-28 melanoma, with HCT-15 colon, in the experiment with HOP-62 NSCLC, in the experiment on SR leukemia, with KM12 colon and with OVCAR-4 ovarian was greater than 100 µM in each case. In addition, the TGI in the experiment on A549 NSCLC and in the experiment with IGROV1 ovarian was greater than 100 µM each time.
